In US20260256792A1, “TREATMENT OF CHRONIC SPONTANEOUS URTICARIA BY ADMINISTERING (R)-2-[3-[4-AMINO-3-(2-FLUORO-4-PHENOXY-PHENYL)PYRAZOLO[3,4-D]PYRIMIDIN-1-YL]PIPERIDINE-1-CARBONYL]-4-METHYL-4-[4-(OXETAN-3-YL)PIPERAZIN-1-YL]PENT-2-ENENITRILE” (priority 2023, published 2026):

Tested on: angioedema in CSU patients
Assay: Phase 2 CSU study: angioedema activity score over 7 days (AAS7)
Type: in vivo, human
Settings: for Non-responder n (%), AAS7 = 0 / OR (95% CI) for rilzabrutinib vs. placebo, AAS7 = 0 / RRD (%) for rilzabrutinib vs. placebo (95% CI), AAS7 = 0 / Responder n (%), AAS7 = 0: outlier removed
Source text: The study comprises a 12 week, randomized, double-blind, placebo-controlled, multi-center, dose-ranging efficacy and safety phase, followed by a 40 week open label extension (OLE) phase (see FIG. 1). The study consists of three phases and an optional OLE phase. […] The weekly angioedema activity score (AAS7) was proposed as a tertiary endpoint. […] Patients were to complete the AAS using the e-diary. The e-diary was to be used once daily on the same time of each day recording of participant's answers to the angioedema activity score over 7 days (AAS7) questionnaire.

[1] = 400 mg TID, Week 1, ITT, angioedema at baseline
[2] = 400 mg TID, Week 1, omalizumab-naïve
[3] = 400 mg TID, Week 1, omalizumab-naïve, angioedema at baseline
[4] = 400 mg TID, Week 2, ITT, angioedema at baseline
[5] = 400 mg TID, Week 2, omalizumab-naïve
[6] = 400 mg TID, Week 2, omalizumab-naïve, angioedema at baseline
[7] = 400 mg TID, Week 3, ITT, angioedema at baseline
[8] = 400 mg TID, Week 3, omalizumab-naïve
[9] = 400 mg TID, Week 3, omalizumab-naïve, angioedema at baseline
[10] = 400 mg TID, Week 4, ITT, angioedema at baseline
[11] = 400 mg TID, Week 4, omalizumab-naïve

## CC(C)(C=C(C#N)C(=O)N1CCC[C@@H](n2nc(-c3ccc(Oc4ccccc4)cc3F)c3c(N)ncnc32)C1)N1CCN(C2COC2)CC1 [rilzabrutinib, (R)-2-[3-[4-amino-3-(2-fluoro-4-phenoxy-phenyl)pyrazolo[3,4-d]pyrimidin-1-yl]piperidine-1-carbonyl]-4-methyl-4-[4-(oxetan-3-yl)piperazin-1-yl]pent-2-enenitrile]
400 mg QPM, Week 12, omalizumab-naïve, angioedema at baseline
  Participants with AAS7 = 0, Responder n (%): 6 (22.2) n (%)
400 mg TID, ITT population, angioedema at baseline
  LS mean change from baseline in AAS7 at Week 12: −43.36 points
[1]
  AAS7 % Change difference for rilzabrutinib vs. placebo LS Mean (95% CI): −34.55 (−66.00, −3.09) %
  AAS7 % Change from baseline LS Mean (SE): −54.51 (9.77) %
  AAS7 Change difference for rilzabrutinib vs. placebo LS Mean (95% CI): −15.05 (−28.44, −1.67)
  AAS7 Change from baseline LS Mean (SE): −29.55 (4.16)
  AAS7 Post-baseline Mean (SD): 17.50 (22.29)
[2]
  Non-responder n (%), AAS7 = 0: 16 (47.1) n (%)
  OR (95% CI) for rilzabrutinib vs. placebo, AAS7 = 0: 2.576
  RRD (%) for rilzabrutinib vs. placebo (95% CI), AAS7 = 0: 21.8 %
  Responder n (%), AAS7 = 0: 18 (52.9) n (%)
[3]
  AAS7 % Change difference for rilzabrutinib vs. placebo LS Mean (95% CI): −36.35 (−71.01, −1.69) %
  AAS7 % Change from baseline LS Mean (SE): −53.40 (10.59) %
  AAS7 = 0, Non-responder n (%): 16 (69.6) n (%)
  AAS7 = 0, OR (95% CI) for rilzabrutinib vs. placebo: 9.250
  AAS7 = 0, RRD (%) for rilzabrutinib vs. placebo (95% CI): 21.8 %
  AAS7 Change difference for rilzabrutinib vs. placebo LS Mean (95% CI): −16.03 (−30.69, −1.38)
  AAS7 Change from baseline LS Mean (SE): −29.80 (4.48)
  AAS7 Post-baseline Mean (SD): 18.96 (23.24)
  Participants with AAS7 = 0, Responder n (%): 7 (30.4) n (%)
[4]
  AAS7 % Change from baseline LS Mean (SE): −60.12 (12.38) %
  AAS7 Change difference for rilzabrutinib vs. placebo LS Mean (95% CI): −11.45 (−23.02, 0.12)
  AAS7 Change from baseline LS Mean (SE): −32.35 (4.37)
  AAS7 Post-baseline Mean (SD): 15.52 (20.15)
[5]
  Non-responder n (%), AAS7 = 0: 16 (47.1) n (%)
  OR (95% CI) for rilzabrutinib vs. placebo, AAS7 = 0: 1.556
  RRD (%) for rilzabrutinib vs. placebo (95% CI), AAS7 = 0: 10.2 %
  Responder n (%), AAS7 = 0: 18 (52.9) n (%)
[6]
  AAS7 % Change difference for rilzabrutinib vs. placebo LS Mean (95% CI): −22.03 (−57.92, 13.85) %
  AAS7 % Change from baseline LS Mean (SE): −59.25 (13.33) %
  AAS7 = 0, Non-responder n (%): 14 (60.9) n (%)
  AAS7 = 0, OR (95% CI) for rilzabrutinib vs. placebo: 1.922
  AAS7 = 0, RRD (%) for rilzabrutinib vs. placebo (95% CI): 12.9 %
  AAS7 Post-baseline Mean (SD): 17.03 (20.90)
  Participants with AAS7 = 0, Responder n (%): 9 (39.1) n (%)
[7]
  AAS7 % Change difference for rilzabrutinib vs. placebo LS Mean (95% CI): −24.93 (−66.27, 16.41) %
  AAS7 % Change from baseline LS Mean (SE): −73.45 (15.58) %
  AAS7 Change difference for rilzabrutinib vs. placebo LS Mean (95% CI): −12.00 (−23.87, −0.13)
  AAS7 Change from baseline LS Mean (SE): −36.15 (4.48)
  AAS7 Post-baseline Mean (SD): 13.26 (21.30)
[8]
  Non-responder n (%), AAS7 = 0: 12 (35.3) n (%)
  OR (95% CI) for rilzabrutinib vs. placebo, AAS7 = 0: 3.010
  RRD (%) for rilzabrutinib vs. placebo (95% CI), AAS7 = 0: 26.5 %
  Responder n (%), AAS7 = 0: 22 (64.7) n (%)
[9]
  AAS7 % Change difference for rilzabrutinib vs. placebo LS Mean (95% CI): −25.10 (−70.77, 20.57) %
  AAS7 % Change from baseline LS Mean (SE): −72.78 (16.93) %
  AAS7 = 0, Non-responder n (%): 11 (47.8) n (%)
  AAS7 = 0, OR (95% CI) for rilzabrutinib vs. placebo: 3.063
  AAS7 = 0, RRD (%) for rilzabrutinib vs. placebo (95% CI): 22.5 %
  AAS7 Post-baseline Mean (SD): 14.08 (22.48)
  Participants with AAS7 = 0, Responder n (%): 12 (52.2) n (%)
[10]
  AAS7 % Change difference for rilzabrutinib vs. placebo LS Mean (95% CI): −41.77 (−78.55, −4.98) %
  AAS7 % Change from baseline LS Mean (SE): −78.35 (13.78) %
  AAS7 Change difference for rilzabrutinib vs. placebo LS Mean (95% CI): −15.67 (−27.11, −4.22)
  AAS7 Change from baseline LS Mean (SE): −38.27 (4.30)
  AAS7 Post-baseline Mean (SD): 11.20 (15.95)
[11]
  Non-responder n (%), AAS7 = 0: 18 (52.9) n (%)
  RRD (%) for rilzabrutinib vs. placebo (95% CI), AAS7 = 0: 1.1 %
  Responder n (%), AAS7 = 0: 16 (47.1) n (%)
